In US20100063065A1 (Inpharmatica Limited, priority 2005, published 2010) one finds EC50 data, which are given here for 29 compounds.

Broadly, the EC50 is the midpoint of the concentration-response curve. Lower therefore signals higher potency in that assay.

Each structure is given as a SMILES string. Structures can show the parent of a compound that is named as a salt. Where only a bound is given, the exact number is not on record here.

For the first test, the target named is T1, PPARδ (Homo sapiens, UniProt Q03181).
T1 construct: fused to amino acids 147-441 of PPARδ downstream of CMV promoter; expressed in transfected cells; host or cells: HEK293 cells, transiently transfected with pFACMV-PPARδ using Fugene
T1 sequence (Q03181 147-441): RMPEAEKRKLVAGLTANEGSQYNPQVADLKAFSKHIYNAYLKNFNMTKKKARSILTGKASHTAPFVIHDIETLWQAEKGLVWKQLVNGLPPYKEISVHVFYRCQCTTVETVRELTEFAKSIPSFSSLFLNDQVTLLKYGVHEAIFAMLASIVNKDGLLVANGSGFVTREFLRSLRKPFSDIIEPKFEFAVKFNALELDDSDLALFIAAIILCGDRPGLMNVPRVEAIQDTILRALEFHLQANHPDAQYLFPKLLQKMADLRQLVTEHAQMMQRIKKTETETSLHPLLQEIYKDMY
Nature of the test: Transactivation assay (PPARδ GAL4 assay) in transiently transfected HEK293 cells. The class given is cell-based. To be noted: luciferase reporter, Table 1. The method, then:
Compounds were screened for their functional potency in transiently transfected HEK293 cells for their ability to activate PPAR subtypes. Cells were cultured in DMEM (Invitrogen) supplemented with 10% foetal calf serum, glutamine, penicillin and streptomycin and plated at 10 000 cells/well of a 96-well solid white plate and incubated at 37° C./5% CO2 for 24 hours. Media was removed and the cells washed with PBS. Cells were then transiently transfected using Fugene (Roche) with 50 ng pFACMV-PPARδ (plasmid encoding amino acids 1-147 of the GAL4 DNA binding domain, fused to amino acids 147-441 of PPARδ downstream of CMV promoter) and 250 ng pFR-Luc (reporter plasmid containing 5×GAL4 response elements upstream of a luciferase gene), using a ratio of 3:1 Fugene:DNA. 100 μl of this transfection mixture in DMEM (without foetal calf serum) was added to each well, and the incubation continued for a further 24 hours. The cells are then again washed with PBS prior to the addition of 100 μl reduced serum medium (OptiMEM; Invitrogen). Compounds were added (10 μl in 2% DMSO in OptiMEM) to achieve final concentrations between 0-30 μM. The cells were then returned to the incubator for a further 24 hours. 100 μl of luciferase reagent (Bright Glo, Promega) was added directly to each well, and the luminescence determined using a suitable luminometer.
To measure the selectivity of compounds, their ability to transactivate GAL4 fusions of PPARα LBD and PPARγ LBD was determined. The activity of compounds was expressed as a percentage relative to control compounds: PPARγ rosiglitazone (BRL 49653), PPARδ GW501516 (11) or PPARα KCL1999000269 (12). EC50 values were calculated by fitting of the data to a sigmoidal dose response curve.
`CCc1cc(C(=O)c2ccccc2)c(NC(=O)CC2(CC(=O)O)CCCC2)s1` [Example 17, {1-[(3-Benzoyl-5-ethyl-thiophen-2-ylcarbamoyl)-methyl]-cyclopentyl}-acetic acid] showed an EC50 of 1000 to 30000 nM.

Compound `CCc1cc(C(=O)c2ccc(C)cc2)c(NC(=O)CSCC(=O)O)s1` [Example 8, {[5-Ethyl-3-(4-methyl-benzoyl)-thiophen-2-ylcarbamoyl]-methylsulfanyl}-acetic acid] gave a concentration for a half-maximal effect (EC50) of 100 to 1000 nM.

`CCc1cc(C(=O)c2ccc(OC(F)(F)F)cc2)c(NC(=O)c2ccc(OCC(=O)O)c(C)c2)s1` [Example 101, {4-[5-Ethyl-3-(4-trifluoromethoxy-benzoyl)-thiophen-2-ylcarbamoyl]-2-methyl-phenoxy}-acetic acid] gave a concentration for a half-maximal effect (EC50) of less than 100 nM.

Take `CCc1cc(C(=O)c2ccc(-c3ccc(C(F)(F)F)cc3)cc2)c(NC(=O)CSCC(=O)O)s1` [Example 38, {[5-Ethyl-3-(4′-trifluoromethyl-biphenyl-4-carbonyl)-thiophen-2-ylcarbamoyl]-methylsulfanyl}-acetic acid]: the 50% effective concentration (EC50) is less than 100 nM.

For `CCc1cc(C(=O)c2ccc(F)cc2)c(NC(=O)CC2(CC(=O)O)CCCC2)s1` [Example 21, (1-{[5-Ethyl-3-(4-fluoro-benzoyl)-thiophen-2-ylcarbamoyl]-methyl}-cyclopentyl)-acetic acid], the EC50 fell in the range of 1000 to 30000 nM.

For `CCc1cc(C(=O)c2cccc(Cl)c2)c(NC(=O)CSCC(=O)O)s1` [Example 27, {[3-(3-Chloro-benzoyl)-5-ethyl-thiophen-2-ylcarbamoyl]-methylsulfanyl}-acetic acid], the EC50 was in the range of 100 to 1000 nM.

In turn, `CCc1cc(C(=O)c2ccccc2)c(NC(=O)CSC(C)(C)C(=O)O)s1` [Example 15, 2-[(3-Benzoyl-5-ethyl-thiophen-2-ylcarbamoyl)-methylsulfanyl]-2-methyl-propionic acid] registered a concentration for a half-maximal effect (EC50) of 1000 to 30000 nM.

Compound `CCc1cc(C(=O)c2ccc(F)c(Cl)c2)c(NC(=O)CSCC(=O)O)s1` [Example 31, {[3-(3-Chloro-4-fluoro-benzoyl)-5-ethyl-thiophen-2-ylcarbamoyl]-methylsulfanyl}-acetic acid] gave an EC50 of 100 to 1000 nM.

As to `O=C(O)CSCC(=O)Nc1sc(Cl)cc1C(=O)c1ccc(OC(F)(F)F)cc1` [Example 67, {[5-Chloro-3-(4-trifluoromethoxy-benzoyl)-thiophen-2-ylcarbamoyl]-methylsulfanyl}-acetic acid], the EC50 was less than 100 nM.

Take `CCc1cc(C(=O)c2cccc(-c3ccc(F)cc3)c2)c(NC(=O)CSCC(=O)O)s1` [Example 43]: the EC50 was in the range of 100 to 1000 nM.

For the compound `CCc1cc(C(=O)c2ccc(OC(F)(F)F)cc2)c(NC(=O)CSc2ccc(OC(C)(C)C(=O)O)cc2)s1` [Example 95, 2-(4-{[5-Ethyl-3-(4-trifluoromethoxy-benzoyl)-thiophen-2-ylcarbamoyl]-methylsulfanyl}-phenoxy)-2-methyl-propionic acid], the EC50 was 100 to 1000 nM.

Take `CCc1ccc(C(=O)c2cc(CC)sc2NC(=O)CC2(CC(=O)O)CCCC2)cc1` [Example 11, (1-{[5-Ethyl-3-(4-ethyl-benzoyl)-thiophen-2-ylcarbamoyl]-methyl}-cyclopentyl)-acetic acid]: the EC50 is 1000 to 30000 nM.

In the case of `CCc1cc(C(=O)c2ccc(OC(F)(F)F)cc2)c(NC(=O)CNC(C)(C)C(=O)O)s1` [Example 76, 2-({[5-Ethyl-3-(4-trifluoromethoxy-benzoyl)-thiophen-2-ylcarbamoyl]-methyl}-amino)-2-methyl-propionic acid], the EC50 is less than 100 nM.

The compound `CCc1cc(C(=O)c2ccc(-c3ccc(F)cc3)cc2)c(NC(=O)CNC(C)(C)C(=O)O)s1` [Example 83, 2-({[5-Ethyl-3-(4′-fluoro-biphenyl-4-carbonyl)-thiophen-2-ylcarbamoyl]-methyl}-amino)-2-methyl-propionic acid] came in with an EC50 of less than 100 nM.

Turning to `CCc1cc(C(=O)c2ccc(OC)cc2)c(NC(=O)CC2(CC(=O)O)CCCC2)s1` [Example 6, (1-{[5-Ethyl-3-(4-methoxy-benzoyl)-thiophen-2-ylcarbamoyl]-methyl}-cyclopentyl)-acetic acid], the half-maximal effective concentration (EC50) fell in the range of 1000 to 30000 nM.

`CCc1cc(C(=O)c2ccc(OC(F)(F)F)cc2)c(NC(=O)CSCC(=O)O)s1` [Example 1, {[5-Ethyl-3-(4-trifluoromethoxy-benzoyl)-thiophen-2-ylcarbamoyl]-methylsulfanyl}-acetic acid] had a concentration giving a half-maximal response (EC50) of less than 100 nM.

With `CCc1cc(C(=O)c2ccc(C)c(C)c2)c(NC(=O)CC2(CC(=O)O)CCCC2)s1` [Example 53, (1-{[3-(3,4-Dimethyl-benzoyl)-5-ethyl-thiophen-2-ylcarbamoyl]-methyl}-cyclopentyl)-acetic acid], the EC50 lay in the range of 1000 to 30000 nM.

In the case of `CCc1cc(C(=O)c2ccc(Cl)c(Cl)c2)c(NC(=O)CC(C)(C)CC(=O)O)s1` [Example 30, 4-[3-(3,4-Dichloro-benzoyl)-5-ethyl-thiophen-2-ylcarbamoyl]-3,3-dimethyl-butyric acid], the 50% effective concentration (EC50) lay in the range of 1000 to 30000 nM.

Still in this test, the particulars now being: luciferase reporter, Table 2.
As to `CCc1cc(C(=O)c2cc3cc(OC(F)(F)F)ccc3n2C)c(NC(=O)CSCC(=O)O)s1` [Example 150, {[5-Ethyl-3-(1-methyl-5-trifluoromethoxy-1H-indole-2-carbonyl)-thiophen-2-ylcarbamoyl]-methylsulfanyl}-acetic acid], the EC50 was less than 100 nM.

In turn, `CCc1cc(C(=O)c2ccc(OC(F)(F)F)cc2)c(NC(=O)CNC2(C(=O)O)CCCCC2)s1` [Example 166, 1-({[5-Ethyl-3-(4-trifluoromethoxy-benzoyl)-thiophen-2-ylcarbamoyl]-methyl}-amino)-cyclohexanecarboxylic acid] returned an EC50 of 100 to 1000 nM.

In turn, `CCc1cc(C(=O)c2cn(C)c3ccc(Cl)cc23)c(NC(=O)CSCC(=O)O)s1` [Example 157, {[3-(5-Chloro-1-methyl-1H-indole-3-carbonyl)-5-ethyl-thiophen-2-ylcarbamoyl]-methylsulfanyl}-acetic acid] returned a concentration for a half-maximal effect (EC50) of 100 to 1000 nM.

Take `CCc1cc(C(=O)c2ccc(Cl)c(Cl)c2)c(NC(=O)CN[C@H](C(=O)O)C(C)C)s1` [Example 170, (S)-2-({[3-(3,4-Dichloro-benzoyl)-5-ethyl-thiophen-2-ylcarbamoyl]-methyl}-amino)-3—methyl-butyric acid]: the EC50 lay in the range of 100 to 1000 nM.

`CCc1cc(C(=O)c2cc3cc(Cl)ccc3n2C)c(NC(=O)CSCC(=O)O)s1` [Example 151, {[3-(5-Chloro-1-methyl-1H-indole-2-carbonyl)-5-ethyl-thiophen-2-ylcarbamoyl]-methylsulfanyl}-acetic acid] displayed a half-maximal effective concentration (EC50) of less than 100 nM.

With `CCc1cc(C(=O)c2ccc(OC(F)(F)F)cc2)c(NC(=O)CN2CCC(C(=O)O)C2)s1` (centres unmarked) [Example 162, 1-{[5-Ethyl-3-(4-trifluoromethoxy-benzoyl)-thiophen-2-ylcarbamoyl]-methyl}-pyrrolidine-3-carboxylic acid], the EC50 lay in the range of 100 to 1000 nM.

`CCc1cc(C(=O)c2ccc(OCC(F)(F)F)cc2)c(NC(=O)CSCC(=O)O)s1` [Example 175, ({5-Ethyl-3-[4-(2,2,2-trifluoro-ethoxy)-benzoyl]-thiophen-2-ylcarbamoyl}-methylsulfanyl)-acetic acid] registered a half-maximal effective concentration (EC50) of 100 to 1000 nM.

Turning to `Cc1cc(C(=O)c2ccc(OC(F)(F)F)cc2)c(NC(=O)CSc2ccc(OCC(=O)O)cc2)s1` [Example 141, (4-{[5-Methyl-3-(4-trifluoromethoxy-benzoyl)-thiophen-2-ylcarbamoyl]-methylsulfanyl}-phenoxy)-acetic acid], the 50% effective concentration (EC50) is less than 100 nM.

Regarding `CCc1cc(C(=O)c2ccc(OC(F)(F)F)cc2)c(NC(=O)CCN2CCC[C@@H]2C(=O)O)s1` [Example 193, (R)-1-{2-[5-Ethyl-3-(4-trifluoromethoxy-benzoyl)-thiophen-2-ylcarbamoyl]-ethyl}-pyrrolidine-2-carboxylic acid], the EC50 is 100 to 1000 nM.

`CCc1cc(C(=O)c2ccc(Cl)cc2)c(NC(=O)CN2[C@@H](C(=O)O)CC[C@@H]2c2ccccc2)s1` [Example 187, (2R,5R)-1-{[3-(4-Chloro-benzoyl)-5-ethyl-thiophen-2-ylcarbamoyl]-methyl}-5-phenyl-pyrrolidine-2-carboxylic acid hydrochloride] gave an EC50 of 100 to 1000 nM.

In turn, `CCc1cc(C(=O)c2ccc(OC(F)(F)F)cc2)c(NC(=O)C(C)(C)N2CCC[C@@H]2C(=O)O)s1` [Example 119, (R)-1-{1-[5-Ethyl-3-(4-trifluoromethoxy-benzoyl)-thiophen-2-ylcarbamoyl]-1-methyl-ethyl}-pyrrolidine-2-carboxylic acid] returned a concentration for a half-maximal effect (EC50) of 100 to 1000 nM.
